According to patent publication US12344595B2, “2-amino-n-phenyl-nicotinamides as NAV1.8 inhibitors” (Merck Sharp & Dohme LLC, priority 2018, dated 2025):

Target: human Nav1.8 (Homo sapiens (Human), UniProt Q9Y5Y9)
Assay: Nav1.8 Qube automated patch-clamp assay
Format: cell-based
Conditions: Nav1.8 Qube Assay; human Nav1.8 channels stably expressed in HEK 293 cells
How it was run: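 IC50 values came from Hill fitting of peak currents: pulse 1 for resting-state and pulse 10 for inactivated-state inhibition. Currents were recorded in stably transfected HEK293 cells at room temperature, with ten 20 ms steps to 10 mV at 1 Hz from a −90 mV hold. External solution was 150 mM NaCl-based; internal solution was CsF/CsCl.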

Chain of human Nav1.8 (Q9Y5Y9 whole entry): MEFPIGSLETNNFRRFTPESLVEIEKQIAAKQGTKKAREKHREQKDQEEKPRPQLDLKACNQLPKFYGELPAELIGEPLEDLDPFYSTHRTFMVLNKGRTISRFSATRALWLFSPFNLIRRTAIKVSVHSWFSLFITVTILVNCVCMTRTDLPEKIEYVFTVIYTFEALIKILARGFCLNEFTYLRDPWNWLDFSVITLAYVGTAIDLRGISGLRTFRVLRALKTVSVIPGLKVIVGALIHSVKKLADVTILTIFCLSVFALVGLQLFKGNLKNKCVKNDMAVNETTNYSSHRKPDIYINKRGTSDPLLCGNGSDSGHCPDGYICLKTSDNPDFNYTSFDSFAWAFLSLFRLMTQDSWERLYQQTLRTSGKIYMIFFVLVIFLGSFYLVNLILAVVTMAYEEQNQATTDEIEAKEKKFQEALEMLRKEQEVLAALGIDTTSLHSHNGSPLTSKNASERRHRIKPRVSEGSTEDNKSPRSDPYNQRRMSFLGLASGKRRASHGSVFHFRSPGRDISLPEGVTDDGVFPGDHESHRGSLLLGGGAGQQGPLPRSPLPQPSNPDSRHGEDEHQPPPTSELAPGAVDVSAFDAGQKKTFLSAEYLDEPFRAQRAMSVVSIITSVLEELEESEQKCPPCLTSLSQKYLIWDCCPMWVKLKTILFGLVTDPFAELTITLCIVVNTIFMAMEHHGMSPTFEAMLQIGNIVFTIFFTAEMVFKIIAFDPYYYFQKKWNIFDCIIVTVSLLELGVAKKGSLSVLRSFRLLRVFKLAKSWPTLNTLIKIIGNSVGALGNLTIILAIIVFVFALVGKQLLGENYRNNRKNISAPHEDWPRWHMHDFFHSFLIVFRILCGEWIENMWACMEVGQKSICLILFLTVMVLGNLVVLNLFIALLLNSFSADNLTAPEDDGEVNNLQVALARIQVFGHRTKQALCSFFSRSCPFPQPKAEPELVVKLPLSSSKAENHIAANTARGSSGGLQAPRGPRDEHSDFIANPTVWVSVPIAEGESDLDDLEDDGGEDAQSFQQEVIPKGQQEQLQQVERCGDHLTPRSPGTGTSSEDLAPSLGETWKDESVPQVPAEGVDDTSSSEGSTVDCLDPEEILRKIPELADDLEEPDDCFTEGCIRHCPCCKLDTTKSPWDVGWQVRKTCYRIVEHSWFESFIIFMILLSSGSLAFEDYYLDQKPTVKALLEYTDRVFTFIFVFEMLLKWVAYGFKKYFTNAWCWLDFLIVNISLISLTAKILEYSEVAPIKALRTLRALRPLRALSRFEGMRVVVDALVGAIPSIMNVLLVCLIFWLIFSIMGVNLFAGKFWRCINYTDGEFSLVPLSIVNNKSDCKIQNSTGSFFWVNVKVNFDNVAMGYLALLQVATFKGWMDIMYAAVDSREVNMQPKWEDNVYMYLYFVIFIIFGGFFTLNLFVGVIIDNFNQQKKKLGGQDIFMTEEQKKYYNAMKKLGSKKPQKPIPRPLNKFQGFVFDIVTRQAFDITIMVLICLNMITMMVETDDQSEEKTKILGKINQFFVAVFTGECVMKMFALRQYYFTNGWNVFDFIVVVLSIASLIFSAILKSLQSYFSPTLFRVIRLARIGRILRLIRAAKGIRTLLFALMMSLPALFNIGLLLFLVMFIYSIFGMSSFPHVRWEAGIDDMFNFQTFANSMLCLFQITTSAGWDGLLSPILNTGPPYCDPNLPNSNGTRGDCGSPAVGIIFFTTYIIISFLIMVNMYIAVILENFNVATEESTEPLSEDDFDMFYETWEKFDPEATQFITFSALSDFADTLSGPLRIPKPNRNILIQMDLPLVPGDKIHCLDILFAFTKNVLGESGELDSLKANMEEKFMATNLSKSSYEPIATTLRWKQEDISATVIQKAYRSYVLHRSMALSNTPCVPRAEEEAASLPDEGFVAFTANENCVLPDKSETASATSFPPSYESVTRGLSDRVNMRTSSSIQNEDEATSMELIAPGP

| SMILES | IC50 [nM] |
| --- | --- |
| NS(=O)(=O)c1cccc(NC(=O)c2ccc(F)nc2N2CCCCCC2)c1 [Example 93, 2-(azepan-1-yl)-6-fluoro-N-(3-sulfamoyl-phenyl)pyridine-3-carboxamide] | 59 |
| CS(=O)(=O)c1cccc(NC(=O)c2cc(C(F)(F)F)cnc2N2CCCCCCC2)c1 [Example 95, 2-(azocan-1-yl)-N-(3-methylsulfonylphenyl)-5-(trifluoromethyl)-pyridine-3-carboxamide] | 20 |
| CS(=O)(=O)c1cccc(NC(=O)c2cc(C(F)(F)F)cnc2N2CC3CCC(F)(F)C3C2)c1 (centres unmarked) [Example 96, 2-(4,4-difluoro-1,3,3a,5,6,6a-hexahydrocyclopenta[c]pyrrol-2-yl)-N-(3-methylsulfonylphenyl)-5-(trifluoromethyl)-pyridine-3-carboxamide] | 40 |
| CS(=O)(=O)c1cccc(NC(=O)c2cc(C(F)(F)F)cnc2N2C[C@H]3CCCC[C@H]3C2)c1 [Example 97, 2-[(3aS,7aR)-1,3,3a,4,5,6,7,7a-octahydroisoindol-2-yl]-N-(3-methyl-sulfonylphenyl)-5-(trifluoromethyl) pyridine-3-carboxamide] | 49 |
| CS(=O)(=O)c1cccc(NC(=O)c2cc(C(F)(F)F)cnc2N2CCc3ccccc3C2)c1 [Example 98, 2-(3,4-dihydro-1H-isoquinolin-2-yl)-N-(3-methylsulfonylphenyl)-5-(trifluoromethyl)-pyridine-3-carboxamide] | 93 |
| CS(=O)(=O)c1cccc(NC(=O)c2cc(C(F)(F)F)cnc2N2CCC(F)CC2)c1 [Example 100, 2-(4-fluoro-1-piperidyl)-N-(3-methylsulfonylphenyl)-5-(trifluoromethyl)-pyridine-3-carboxamide] | 227 |
| NC(=O)c1cccc(NC(=O)c2cc(C(F)(F)F)cnc2N2CCCC(F)(F)CC2)c1 [Example 106, N-(3-carbamoylphenyl)-2-(4,4-difluoroazepan-1-yl)-5-(trifluoro-methyl)pyridine-3-carboxamide] | 32 |

Results, then the compound that gave them:

| IC50 [nM] | SMILES |
| --- | --- |
| 8.4 | CS(=O)(=O)c1cccc(NC(=O)c2cc(C(F)(F)F)cnc2N2CCCC(F)(F)CC2)c1 [Example 94, 2-(4,4-difluoroazepan-1-yl)-N-(3-methylsulfonylphenyl)-5-(trifluoromethyl)-pyridine-3-carboxamide] |
| 131 | CS(=O)(=O)c1cccc(NC(=O)c2cc(C(F)(F)F)cnc2N2CCC3(CC2)CC3)c1 [Example 99, 2-(6-azaspiro[2.5]octan-6-yl)-N-(3-methylsulfonylphenyl)-5-(trifluoromethyl)-pyridine-3-carboxamide] |
| 260 | CS(=O)(=O)c1cccc(NC(=O)c2cc(C(F)(F)F)cnc2N2CCC3(CC3)C(F)(F)C2)c1 [Example 101, 2-(8,8-difluoro-6-azaspiro[2.5]octan-6-yl)-N-(3-methyl-sulfonylphenyl)-5-(trifluoromethyl) pyridine-3-carboxamide] |
| 706 | CS(=O)(=O)c1cccc(NC(=O)c2cc(C(F)(F)F)cnc2N2CCCC(F)(F)C2)c1 [Example 102, 2-(3,3-difluoro-1-piperidyl)-N-(3-methylsulfonylphenyl)-5-(trifluoromethyl)-pyridine-3-carboxamide] |
| 2330 | CS(=O)(=O)c1cccc(NC(=O)c2cc(C(F)(F)F)cnc2N2Cc3ccccc3C2)c1 [Example 103, 2-isoindolin-2-yl-N-(3-methylsulfonylphenyl)-5-(trifluoromethyl)-pyridine-3-carboxamide] |
| 7330 | CS(=O)(=O)c1cccc(NC(=O)c2cc(C(F)(F)F)cnc2N2CCC3OCCC32)c1 (centres unmarked) [Example 104, 2-(2,3,3a,5,6,6a-hexahydrofuro[3,2-b]pyrrol-4-yl)-N-(3-methylsulfonylphenyl)-5-(trifluoromethyl) pyridine-3-carboxamide] |
| 8720 | CS(=O)(=O)c1cccc(NC(=O)c2cc(C(F)(F)F)cnc2N2CCC(c3ccccc3)CC2)c1 [Example 105, N-(3-methylsulfonylphenyl)-2-(4-phenyl-1-piperidyl)-5-(trifluoro-methyl)pyridine-3-carboxamide] |
